Experimental data as given in ChEMBL document CHEMBL1671637, “Development, stability, and molecular mechanisms of macrolide resistance in Campylobacter jejuni” (2008).
≈ marks a conversion by molar mass, not a printed value. Calls of active or inactive are those of the source. No cut-off for these calls is given here.

What was measured:
[1] = tested on: Campylobacter jejuni; assay: Antimicrobial activity against Campylobacter jejuni DC6 infected in 3 days old chicken by agar dilution method; format: functional
[2] = tested on: Campylobacter jejuni; assay: Antimicrobial activity against Campylobacter jejuni DC2 infected in 3 days old chicken by agar dilution method; format: functional
[3] = tested on: Campylobacter jejuni; assay: Antimicrobial activity against Campylobacter jejuni DC2 infected in 15 days old chicken by agar dilution method; format: functional
[4] = tested on: Campylobacter jejuni; assay: Antimicrobial activity against Campylobacter jejuni DC2 infected in chicken assessed as microbial shedding level after compound administration through feed for 20 days; format: functional, organism-based
[5] = tested on: Campylobacter jejuni; assay: Antimicrobial activity against Campylobacter jejuni DC26 infected in chicken assessed as microbial shedding level after compound administration through feed for 20 days; format: functional, organism-based
[6] = tested on: Campylobacter jejuni; assay: Antimicrobial activity against Campylobacter jejuni DC2 infected in 15 days old chicken food on medicated food by agar dilution method; format: functional
[7] = tested on: Campylobacter jejuni; assay: Antimicrobial activity against Campylobacter jejuni DC26 infected in 15 days old chicken food on medicated food by agar dilution method; format: functional

MIC [1]: > 512 µg/mL
MIC [2]: 64 µg/mL (≈ 69.9 µM)
MIC [3]: 64 µg/mL (≈ 69.9 µM)
MIC [6]: 64 µg/mL (≈ 69.9 µM)
MIC [7]: 128 µg/mL (≈ 140 µM)
Compound: CC[C@H]1OC(=O)C[C@@H](O)[C@H](C)[C@@H](O[C@@H]2O[C@H](C)[C@@H](O[C@H]3C[C@@](C)(O)[C@@H](O)[C@H](C)O3)[C@H](N(C)C)[C@H]2O)[C@@H](CC=O)C[C@@H](C)C(=O)/C=C/C(C)=C/[C@@H]1CO[C@@H]1O[C@H](C)[C@@H](O)[C@@H](OC)[C@H]1OC [TYLOSIN]
Activity [4]: inactive
Activity [5]: inactive
